Where two headings read alike, the source gives them in different places. Each block holds one molecule with its values, some of them ahead of it.
Experiments:
Type in all cases: physicochemical
[1] = Tablet hardness (Key Instruments hardness tester); conditions: for Hardness / Hardness (in brackets): tablet; for Hardness: 24 hours after production; for Hardness (in brackets): analysis performed during production; for Maximum hardness: tablets over the range of compression forces
Experimental: (§1) The material under evaluation was mixed in a laboratory scale Turbula mixer for 2 minutes with 0.5% magnesium stearate as lubricant. The mixed sample was then tabletted on a Manesty 2C single punch press using a 15 mm diameter flat-faced bevelled edge punch. The compression force was adjusted by altering the drop of the top punch. The compression force is indicated by an arbitrary figure. The higher the number, the greater the compression. These figures can only be used as a comparison for each series of compressions. As soon as the material is changed or any of the machine settings are altered the numbers cannot be compared. The adjustment is such that it cannot be exactly reproduced, therefore, these figures should only be seen as a means of differentiating between samples and indicating either increasing or decreasing compression force. Tablet hardness was measured using a Key Instruments tablet hardness tester which measures the force required to break the tablet across its diameter. Ten tablets were tested and an average reading recorded.

[2] = Tablet friability (Key Instruments friability tester); conditions: for Friability (10 tabs): tablet, percentage weight loss, dropped 100 times
Experimental: as §1, with “friability” for “hardness”, “friability tester.” for “tablet hardness tester which measures the force required to break the tablet across its diameter.”, “dropped 100 times” for “tested”, “the percentage weight loss” for “an average reading”, “recorded. Any tablets that are badly chipped are removed prior to weighing.” for “recorded.”

[3] = Flowability
Experimental: (§2) Flowability: A 500 g sample was poured to a 500 ml measuring cylinder. The sample was tapped 10 times, levelled and the amount of the sample was weighed.

[4] = Bulk density; conditions: tapped 10 times
Experimental: as §2

[5] = Heat of solution (calorimeter); conditions: 40 g in 670 g distilled water at 25° C.
Experimental: Heat of solution: 40 g of the sample was dissolved in 670 g of distilled water at 25° C. The heat of solution was measured with a calorimeter operating in a constant temperature environment.

[6] = Particle size distribution by sieve analysis; conditions: for Coefficient of variation: of particle size
Text: Particle size distribution: Sieve analysis was used to determine the particle size.

[7] = Rate of solution; conditions: 100 g in 100 g of water at 20° C., paddle mixer 250 rpm
Experimental: Rate of solution: 100 g of the sample was put in 100 g of water at 20° C. and 40° C. A small paddle mixer, 250 rpm, was used to mix the solution. During the dissolution the refractive index was measured.

[8] = Hygroscopicity (humidity cabinet)
Experimental: Hygroscopicity: 10 g of the sample was weighed to a petri dish. The open dish was put into a humidity cabinet. The change in weight was measured. The humidity cabins at 25° C. and relative humidity 60% and at 40° C. and relative humidity 70% were used.

[9] = Viscosity of chocolate on storage (Haake RV20 viscometer); conditions: chocolate made with the lactitol, held at 50° C. for one week
Experimental: (§3) The milk powder, microcrystalline lactitol, Litesse II (modified polydextrose), vanillin and cocoa liquor were mixed in a Stephan mixer with a portion of the cocoa butter. The mixture was passed through a three roll refiner to produce a flake. The flake was mixed again in the Stephan mixer and a farther portion of cocoa butter was added. The mix was re-refined with the pressures increased to produce a flake with an acceptable particle size.
The resulting flakes were stored ready for conching. Prior to conching the flakes were pre-warmed in an oven set to 50° C. The flake was added to a conche with the temperature set to 60° C. On loading the remaining cocoa butter was added to give a final fat content of 35 %. A small amount of the lecithin was added at this stage. The sample was conched for 24 hours. The remaining lecithin was added I hour prior to the removal of the batch from the conche.
For the sake of comparison the procedure was repeated identically with another batch except that the microcrystalline lactitol was replaced by standard crystalline lactitol monohydrate (Lactitol MC, Xyrofin Oy).
The viscosity of the two samples was measured using a Haake RV20 viscometer with an RC20 rheocontroller fitted. […]

[10] = Particle size analysis of chocolate; conditions: chocolate made with the lactitol
Experimental: as §3
There was an insignificant increase in the particle size of the chocolate made using microcrystalline lactitol (10-12 μm) compared to the one with lactitol monohydrate (9-10 μm).

[11] = Water content (Karl Fischer)
Experimental: The water content of the microcrystalline lactitol product was analyzed by the Karl Fischer method and the melting behaviour was measured by differential scanning calorimetry (DSC).
Moisture was measured using coulometric Karl Fischer titration

[12] = compression 32.5, listed as Microcrystalline Lactitol Sample
[13] = compression 33, listed as Microcrystalline Lactitol Sample
[14] = compression 33.5, listed as Microcrystalline Lactitol Sample
[15] = compression 34, listed as Microcrystalline Lactitol Sample

Hardness ([1]; compression 32.5 (arbitrary figure)): 70 N
Hardness (in brackets) ([1]; compression 32.5): 82 N
Hardness ([1]; compression 33 (arbitrary figure)): 139 N
Hardness (in brackets) ([1]; compression 33): 133 N
Hardness ([1]; compression 33.5 (arbitrary figure)): 193 N
Hardness (in brackets) ([1]; compression 33.5): 213 N
Hardness ([1]; compression 34 (arbitrary figure)): 240 N
Hardness (in brackets) ([1]; compression 34): 307 N
Maximum hardness [1]: 240 N
Friability (10 tabs) ([2]; compression 32.5): 4.7%
Friability (10 tabs) ([2]; compression 33): 1.79%
Friability (10 tabs) ([2]; compression 33.5): 1.08%
Friability (10 tabs) ([2]; compression 34): 0.34%
Structure (SMILES): OC[C@@H](O)[C@@H](O[C@@H]1O[C@H](CO)[C@H](O)[C@H](O)[C@H]1O)[C@H](O)[C@@H](O)CO [Granulated Lactitol, lactitol]

Maximum hardness ([1]; listed as crystalline lactitol monohydrate, monohydrate): < 70 N
Flowability ([3]; monohydrate): 23 s
Bulk density ([4]; monohydrate): 360 g/500 ml
Heat of solution ([5]; monohydrate): 15.6 cal/g
Mean particle size ([6]; monohydrate): 0.47 mm
Sieve analysis 0 ([6]; monohydrate): 0.0
Sieve analysis >0.100 mm ([6]; monohydrate): 0.7
Sieve analysis >0.180 mm ([6]; monohydrate): 4.8
Sieve analysis >0.250 mm ([6]; monohydrate): 15.1
Sieve analysis >0.315 mm ([6]; monohydrate): 25.8
Sieve analysis >0.450 mm ([6]; monohydrate): 20.6
Sieve analysis >0.560 mm ([6]; monohydrate): 17.9
Sieve analysis >0.710 mm ([6]; monohydrate): 15.2
Coefficient of variation ([6]; monohydrate): 30
Time to dissolve ([7]; listed as the monohydrate, monohydrate): about 5 minutes
Water sorption ([8]; 25° C. and 60% relative humidity, listed as the monohydrate, monohydrate): 0.02%
Water sorption ([8]; 40° C. and 70% relative humidity, listed as the monohydrate, monohydrate): 0.04%
Viscosity change of chocolate on storage ([9]; monohydrate): considerable thickening
Particle size of the chocolate ([10]; monohydrate): 9-10 μm
Structure (SMILES): OC[C@@H](O)[C@@H](O[C@@H]1O[C@H](CO)[C@H](O)[C@H](O)[C@H]1O)[C@H](O)[C@@H](O)CO [lactitol monohydrate]
Friability results (in words) ([2]; tablets, all compression forces): all of the tablets totally disintegrating during the test

Water content of the product ([11]; Karl Fischer method): 3.5%
Moisture ([11]; coulometric Karl Fischer titration): 5.1%
Hardness ([1]; compression 32 (arbitrary figure)): 90 N
Hardness (in brackets) ([1]; compression 32): 85 N
Hardness ([1]; compression 32.5 (arbitrary figure), listed as Microcrystalline Lactitol Sample): 156 N
Hardness (in brackets) [1, 12]: 137 N
Hardness ([1]; compression 33 (arbitrary figure), listed as Microcrystalline Lactitol Sample): 252 N
Hardness (in brackets) [1, 13]: 257 N
Hardness ([1]; compression 33.5 (arbitrary figure), listed as Microcrystalline Lactitol Sample): 319 N
Hardness (in brackets) [1, 14]: (301) N
Hardness ([1]; compression 34 (arbitrary figure), listed as Microcrystalline Lactitol Sample): 134 N
Hardness (in brackets) [1, 15]: (335) N
Hardness ([1]; compression 34.5 (arbitrary figure)): 330 N
Hardness (in brackets) ([1]; compression 34.5): (344) N
Friability (10 tabs) ([2]; compression 32): 1.31%
Friability (10 tabs) [2, 12]: 0.32%
Friability (10 tabs) [2, 13]: 0.22%
Friability (10 tabs) [2, 14]: 0.5%
Friability (10 tabs) [2, 15]: 0.38%
Friability (10 tabs) ([2]; compression 34.5): 0.69%
Flowability [3]: 17 s
Bulk density [4]: 325 g/500 ml
Heat of solution [5]: 15.4 cal/g
Mean particle size [6]: 0.29 mm
Sieve analysis 0 [6]: 1.6
Sieve analysis >0.100 mm [6]: 13.0
Sieve analysis >0.180 mm [6]: 21.1
Sieve analysis >0.250 mm [6]: 21.6
Sieve analysis >0.315 mm [6]: 31.5
Sieve analysis >0.450 mm [6]: 8.3
Sieve analysis >0.560 mm [6]: 2.3
Sieve analysis >0.710 mm [6]: 0.6
Coefficient of variation [6]: 39
Time to dissolve [7]: 4 min
Water sorption ([8]; 25° C. and 60% relative humidity): 0.05%
Water sorption ([8]; 40° C. and 70% relative humidity): 0.11%
Viscosity change of chocolate on storage [9]: no significant increase in viscosity
Particle size of the chocolate [10]: 10-12 μm
Structure (SMILES): OC[C@@H](O)[C@@H](O[C@@H]1O[C@H](CO)[C@H](O)[C@H](O)[C@H]1O)[C@H](O)[C@@H](O)CO [microcrystalline lactitol, lactitol]

Reference: patent US6395893B1, “Crystallization of lactitol, crystalline lactitol product and use thereof” (Xyrofin Oy, priority 2000, dated 2002)
